Paper PMC5217690 (The Journal of Biological Chemistry, 2016)

Legend:
TrmDEC = biological target: T1, TrmDEC (Escherichia coli, UniProt P0A873); experiment: ITC; format: binding
T1 construct: gene trmD; full-length, N-terminal His tag (pET28b), expressed in E. coli BL21(DE3), tag kept
T1 sequence (P0A873 2-255): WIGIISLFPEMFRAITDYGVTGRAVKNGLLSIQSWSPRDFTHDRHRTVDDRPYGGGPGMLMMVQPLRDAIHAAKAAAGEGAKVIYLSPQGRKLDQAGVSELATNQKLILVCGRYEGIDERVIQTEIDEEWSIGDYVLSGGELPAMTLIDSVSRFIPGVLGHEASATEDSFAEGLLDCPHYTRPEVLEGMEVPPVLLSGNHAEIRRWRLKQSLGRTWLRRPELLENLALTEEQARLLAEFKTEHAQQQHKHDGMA

TrmDSA = biological target: T2, TrmDSA (Staphylococcus aureus, UniProt Q2FHJ8); experiment: ITC; format: binding
T2 construct: gene trmD; full-length, N-terminal His tag (pET28b), expressed in E. coli BL21(DE3), tag kept
T2 sequence (Q2FHJ8 2-245): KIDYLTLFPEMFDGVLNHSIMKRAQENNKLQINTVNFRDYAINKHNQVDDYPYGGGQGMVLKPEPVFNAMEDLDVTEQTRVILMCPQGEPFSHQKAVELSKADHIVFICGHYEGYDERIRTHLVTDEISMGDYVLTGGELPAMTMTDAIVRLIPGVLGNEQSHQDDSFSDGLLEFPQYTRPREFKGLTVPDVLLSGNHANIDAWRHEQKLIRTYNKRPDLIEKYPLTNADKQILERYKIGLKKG

C[S+](CC[C@H](N)C(=O)O)C[C@H]1O[C@@H](n2cnc3c(N)ncnc32)[C@H](O)[C@@H]1O (some centres unmarked) [AdoMet]
Kd (TrmDEC): 21.5 µM | Kd (TrmDSA): 121 µM
